These results are taken from the OligoGym collection.

The data set deals with UBE2D3. Kind of data set: reporter assay of Huesken 2005. To be noted: siRNA. (In general: Reporter assays use an easily measured gene product as a stand-in for the process of interest.)

Oligonucleotides are given in HELM: sugar(base)linkage, 5' to 3'; d 2'-deoxyribose, r ribose, m 2'-O-methylribose, p phosphate. ss, as = sense and antisense strand
Note: test concentration or dose not given here.

As to “RNA1{r(C)p.r(A)p.r(G)p.r(C)p.r(A)p.r(C)p.r(A)p.r(A)p.r(U)p.r(G)p.r(U)p.r(U)p.r(C)p.r(U)p.r(G)p.r(C)p.r(A)p.r(G)p.r(G)p.d(T)p.d(T)}|RNA2{r(C)p.r(C)p.r(U)p.r(G)p.r(C)p.r(A)p.r(G)p.r(A)p.r(A)p.r(C)p.r(A)p.r(U)p.r(U)p.r(G)p.r(U)p.r(G)p.r(C)p.r(U)p.r(G)p.d(G)p.d(A)}$$$RNA1{StrandType:ss}|RNA2{StrandType:as}$”, the normalised inhibition (eCFP-eYFP dual reporter) is 87.8%.

As for “RNA1{r(C)p.r(A)p.r(A)p.r(G)p.r(G)p.r(C)p.r(G)p.r(G)p.r(U)p.r(G)p.r(U)p.r(A)p.r(U)p.r(U)p.r(C)p.r(U)p.r(U)p.r(U)p.r(U)p.d(T)p.d(T)}|RNA2{r(A)p.r(A)p.r(A)p.r(A)p.r(G)p.r(A)p.r(A)p.r(U)p.r(A)p.r(C)p.r(A)p.r(C)p.r(C)p.r(G)p.r(C)p.r(C)p.r(U)p.r(U)p.r(G)p.d(A)p.d(T)}$$$RNA1{StrandType:ss}|RNA2{StrandType:as}$”, the normalised inhibition (eCFP-eYFP dual reporter) worked out at 104%.

Regarding “RNA1{r(G)p.r(U)p.r(U)p.r(U)p.r(C)p.r(A)p.r(U)p.r(U)p.r(G)p.r(G)p.r(C)p.r(A)p.r(A)p.r(G)p.r(C)p.r(C)p.r(A)p.r(C)p.r(A)p.d(T)p.d(T)}|RNA2{r(U)p.r(G)p.r(U)p.r(G)p.r(G)p.r(C)p.r(U)p.r(U)p.r(G)p.r(C)p.r(C)p.r(A)p.r(A)p.r(U)p.r(G)p.r(A)p.r(A)p.r(A)p.r(C)p.d(A)p.d(T)}$$$RNA1{StrandType:ss}|RNA2{StrandType:as}$”, the normalised inhibition (eCFP-eYFP dual reporter) is 94.9%.

In the case of “RNA1{r(C)p.r(A)p.r(U)p.r(U)p.r(U)p.r(A)p.r(C)p.r(A)p.r(A)p.r(C)p.r(A)p.r(A)p.r(G)p.r(A)p.r(A)p.r(U)p.r(U)p.r(U)p.r(A)p.d(T)p.d(T)}|RNA2{r(U)p.r(A)p.r(A)p.r(A)p.r(U)p.r(U)p.r(C)p.r(U)p.r(U)p.r(G)p.r(U)p.r(U)p.r(G)p.r(U)p.r(A)p.r(A)p.r(A)p.r(U)p.r(G)p.d(C)p.d(A)}$$$RNA1{StrandType:ss}|RNA2{StrandType:as}$”, the normalised inhibition (eCFP-eYFP dual reporter) turned out to be 70%.

As for “RNA1{r(U)p.r(A)p.r(A)p.r(G)p.r(A)p.r(U)p.r(C)p.r(A)p.r(C)p.r(A)p.r(G)p.r(U)p.r(G)p.r(G)p.r(U)p.r(C)p.r(G)p.r(C)p.r(C)p.d(T)p.d(T)}|RNA2{r(G)p.r(G)p.r(C)p.r(G)p.r(A)p.r(C)p.r(C)p.r(A)p.r(C)p.r(U)p.r(G)p.r(U)p.r(G)p.r(A)p.r(U)p.r(C)p.r(U)p.r(U)p.r(A)p.d(G)p.d(A)}$$$RNA1{StrandType:ss}|RNA2{StrandType:as}$”, the normalised inhibition (eCFP-eYFP dual reporter) was 55.6%.

In the case of “RNA1{r(U)p.r(G)p.r(G)p.r(U)p.r(C)p.r(G)p.r(C)p.r(C)p.r(U)p.r(G)p.r(C)p.r(U)p.r(U)p.r(U)p.r(A)p.r(A)p.r(C)p.r(A)p.r(A)p.d(T)p.d(T)}|RNA2{r(U)p.r(U)p.r(G)p.r(U)p.r(U)p.r(A)p.r(A)p.r(A)p.r(G)p.r(C)p.r(A)p.r(G)p.r(G)p.r(C)p.r(G)p.r(A)p.r(C)p.r(C)p.r(A)p.d(C)p.d(T)}$$$RNA1{StrandType:ss}|RNA2{StrandType:as}$”, the normalised inhibition (eCFP-eYFP dual reporter) amounted to 90.3%.

On to “RNA1{r(G)p.r(C)p.r(A)p.r(C)p.r(A)p.r(A)p.r(U)p.r(G)p.r(U)p.r(U)p.r(C)p.r(U)p.r(G)p.r(C)p.r(A)p.r(G)p.r(G)p.r(U)p.r(C)p.d(T)p.d(T)}|RNA2{r(G)p.r(A)p.r(C)p.r(C)p.r(U)p.r(G)p.r(C)p.r(A)p.r(G)p.r(A)p.r(A)p.r(C)p.r(A)p.r(U)p.r(U)p.r(G)p.r(U)p.r(G)p.r(C)p.d(T)p.d(G)}$$$RNA1{StrandType:ss}|RNA2{StrandType:as}$”, for which the normalised inhibition (eCFP-eYFP dual reporter) turned out to be 100%.

For “RNA1{r(G)p.r(U)p.r(G)p.r(G)p.r(U)p.r(C)p.r(G)p.r(C)p.r(C)p.r(U)p.r(G)p.r(C)p.r(U)p.r(U)p.r(U)p.r(A)p.r(A)p.r(C)p.r(A)p.d(T)p.d(T)}|RNA2{r(U)p.r(G)p.r(U)p.r(U)p.r(A)p.r(A)p.r(A)p.r(G)p.r(C)p.r(A)p.r(G)p.r(G)p.r(C)p.r(G)p.r(A)p.r(C)p.r(C)p.r(A)p.r(C)p.d(T)p.d(G)}$$$RNA1{StrandType:ss}|RNA2{StrandType:as}$”, the normalised inhibition (eCFP-eYFP dual reporter) is 100%.

“RNA1{r(C)p.r(C)p.r(A)p.r(G)p.r(A)p.r(G)p.r(A)p.r(U)p.r(U)p.r(G)p.r(C)p.r(A)p.r(C)p.r(G)p.r(G)p.r(A)p.r(U)p.r(C)p.r(U)p.d(T)p.d(T)}|RNA2{r(A)p.r(G)p.r(A)p.r(U)p.r(C)p.r(C)p.r(G)p.r(U)p.r(G)p.r(C)p.r(A)p.r(A)p.r(U)p.r(C)p.r(U)p.r(C)p.r(U)p.r(G)p.r(G)p.d(C)p.d(A)}$$$RNA1{StrandType:ss}|RNA2{StrandType:as}$”: the normalised inhibition (eCFP-eYFP dual reporter) was 82%.

With “RNA1{r(U)p.r(G)p.r(C)p.r(U)p.r(A)p.r(U)p.r(G)p.r(U)p.r(G)p.r(A)p.r(U)p.r(C)p.r(C)p.r(A)p.r(A)p.r(A)p.r(C)p.r(C)p.r(C)p.d(T)p.d(T)}|RNA2{r(G)p.r(G)p.r(G)p.r(U)p.r(U)p.r(U)p.r(G)p.r(G)p.r(A)p.r(U)p.r(C)p.r(A)p.r(C)p.r(A)p.r(U)p.r(A)p.r(G)p.r(C)p.r(A)p.d(G)p.d(T)}$$$RNA1{StrandType:ss}|RNA2{StrandType:as}$”, the normalised inhibition (eCFP-eYFP dual reporter) was determined as 42.2%.

As to “RNA1{r(G)p.r(G)p.r(G)p.r(A)p.r(U)p.r(G)p.r(A)p.r(U)p.r(A)p.r(U)p.r(G)p.r(U)p.r(U)p.r(U)p.r(C)p.r(A)p.r(U)p.r(U)p.r(G)p.d(T)p.d(T)}|RNA2{r(C)p.r(A)p.r(A)p.r(U)p.r(G)p.r(A)p.r(A)p.r(A)p.r(C)p.r(A)p.r(U)p.r(A)p.r(U)p.r(C)p.r(A)p.r(U)p.r(C)p.r(C)p.r(C)p.d(C)p.d(A)}$$$RNA1{StrandType:ss}|RNA2{StrandType:as}$”, the normalised inhibition (eCFP-eYFP dual reporter) worked out at 95%.

As to “RNA1{r(U)p.r(U)p.r(U)p.r(C)p.r(U)p.r(A)p.r(A)p.r(A)p.r(G)p.r(U)p.r(U)p.r(C)p.r(U)p.r(U)p.r(U)p.r(U)p.r(A)p.r(U)p.r(C)p.d(T)p.d(T)}|RNA2{r(G)p.r(A)p.r(U)p.r(A)p.r(A)p.r(A)p.r(A)p.r(G)p.r(A)p.r(A)p.r(C)p.r(U)p.r(U)p.r(U)p.r(A)p.r(G)p.r(A)p.r(A)p.r(A)p.d(T)p.d(T)}$$$RNA1{StrandType:ss}|RNA2{StrandType:as}$”, the normalised inhibition (eCFP-eYFP dual reporter) stood at 30.6%.

For the substance “RNA1{r(A)p.r(U)p.r(U)p.r(A)p.r(A)p.r(C)p.r(A)p.r(G)p.r(U)p.r(A)p.r(A)p.r(U)p.r(G)p.r(G)p.r(C)p.r(A)p.r(G)p.r(C)p.r(A)p.d(T)p.d(T)}|RNA2{r(U)p.r(G)p.r(C)p.r(U)p.r(G)p.r(C)p.r(C)p.r(A)p.r(U)p.r(U)p.r(A)p.r(C)p.r(U)p.r(G)p.r(U)p.r(U)p.r(A)p.r(A)p.r(U)p.d(A)p.d(T)}$$$RNA1{StrandType:ss}|RNA2{StrandType:as}$”, the normalised inhibition (eCFP-eYFP dual reporter) was determined as 57.6%.

Consider “RNA1{r(U)p.r(C)p.r(U)p.r(C)p.r(G)p.r(A)p.r(U)p.r(A)p.r(U)p.r(U)p.r(C)p.r(U)p.r(A)p.r(A)p.r(G)p.r(A)p.r(U)p.r(C)p.r(A)p.d(T)p.d(T)}|RNA2{r(U)p.r(G)p.r(A)p.r(U)p.r(C)p.r(U)p.r(U)p.r(A)p.r(G)p.r(A)p.r(A)p.r(U)p.r(A)p.r(U)p.r(C)p.r(G)p.r(A)p.r(G)p.r(A)p.d(C)p.d(A)}$$$RNA1{StrandType:ss}|RNA2{StrandType:as}$”, for which the normalised inhibition (eCFP-eYFP dual reporter) amounted to 98.1%.

“RNA1{r(U)p.r(U)p.r(U)p.r(C)p.r(A)p.r(U)p.r(U)p.r(G)p.r(G)p.r(C)p.r(A)p.r(A)p.r(G)p.r(C)p.r(C)p.r(A)p.r(C)p.r(A)p.r(A)p.d(T)p.d(T)}|RNA2{r(U)p.r(U)p.r(G)p.r(U)p.r(G)p.r(G)p.r(C)p.r(U)p.r(U)p.r(G)p.r(C)p.r(C)p.r(A)p.r(A)p.r(U)p.r(G)p.r(A)p.r(A)p.r(A)p.d(C)p.d(A)}$$$RNA1{StrandType:ss}|RNA2{StrandType:as}$”: the normalised inhibition (eCFP-eYFP dual reporter) came to 85.3%.

With “RNA1{r(A)p.r(U)p.r(C)p.r(C)p.r(A)p.r(U)p.r(U)p.r(U)p.r(G)p.r(U)p.r(U)p.r(C)p.r(A)p.r(C)p.r(U)p.r(G)p.r(C)p.r(U)p.r(A)p.d(T)p.d(T)}|RNA2{r(U)p.r(A)p.r(G)p.r(C)p.r(A)p.r(G)p.r(U)p.r(G)p.r(A)p.r(A)p.r(C)p.r(A)p.r(A)p.r(A)p.r(U)p.r(G)p.r(G)p.r(A)p.r(U)p.d(A)p.d(A)}$$$RNA1{StrandType:ss}|RNA2{StrandType:as}$”, the normalised inhibition (eCFP-eYFP dual reporter) was 96.1%.

For “RNA1{r(G)p.r(A)p.r(C)p.r(A)p.r(A)p.r(U)p.r(U)p.r(C)p.r(A)p.r(U)p.r(U)p.r(U)p.r(U)p.r(C)p.r(C)p.r(U)p.r(A)p.r(C)p.r(A)p.d(T)p.d(T)}|RNA2{r(U)p.r(G)p.r(U)p.r(A)p.r(G)p.r(G)p.r(A)p.r(A)p.r(A)p.r(A)p.r(U)p.r(G)p.r(A)p.r(A)p.r(U)p.r(U)p.r(G)p.r(U)p.r(C)p.d(A)p.d(A)}$$$RNA1{StrandType:ss}|RNA2{StrandType:as}$”, the normalised inhibition (eCFP-eYFP dual reporter) was 92.3%.

With “RNA1{r(U)p.r(A)p.r(A)p.r(U)p.r(G)p.r(A)p.r(C)p.r(A)p.r(G)p.r(C)p.r(C)p.r(C)p.r(A)p.r(U)p.r(A)p.r(U)p.r(C)p.r(A)p.r(A)p.d(T)p.d(T)}|RNA2{r(U)p.r(U)p.r(G)p.r(A)p.r(U)p.r(A)p.r(U)p.r(G)p.r(G)p.r(G)p.r(C)p.r(U)p.r(G)p.r(U)p.r(C)p.r(A)p.r(U)p.r(U)p.r(A)p.d(G)p.d(G)}$$$RNA1{StrandType:ss}|RNA2{StrandType:as}$”, the normalised inhibition (eCFP-eYFP dual reporter) worked out at 97.7%.

With “RNA1{r(A)p.r(G)p.r(C)p.r(A)p.r(C)p.r(A)p.r(A)p.r(U)p.r(G)p.r(U)p.r(U)p.r(C)p.r(U)p.r(G)p.r(C)p.r(A)p.r(G)p.r(G)p.r(U)p.d(T)p.d(T)}|RNA2{r(A)p.r(C)p.r(C)p.r(U)p.r(G)p.r(C)p.r(A)p.r(G)p.r(A)p.r(A)p.r(C)p.r(A)p.r(U)p.r(U)p.r(G)p.r(U)p.r(G)p.r(C)p.r(U)p.d(G)p.d(G)}$$$RNA1{StrandType:ss}|RNA2{StrandType:as}$”, the normalised inhibition (eCFP-eYFP dual reporter) came to 102%.

In the case of “RNA1{r(U)p.r(G)p.r(G)p.r(C)p.r(A)p.r(G)p.r(C)p.r(A)p.r(U)p.r(U)p.r(U)p.r(G)p.r(U)p.r(C)p.r(U)p.r(C)p.r(G)p.r(A)p.r(U)p.d(T)p.d(T)}|RNA2{r(A)p.r(U)p.r(C)p.r(G)p.r(A)p.r(G)p.r(A)p.r(C)p.r(A)p.r(A)p.r(A)p.r(U)p.r(G)p.r(C)p.r(U)p.r(G)p.r(C)p.r(C)p.r(A)p.d(T)p.d(T)}$$$RNA1{StrandType:ss}|RNA2{StrandType:as}$”, the normalised inhibition (eCFP-eYFP dual reporter) amounted to 99.6%.
